Results on seven compounds are retold here after publication PMC7508162 (Frontiers in Pharmacology, 2020).

Like-named read-outs stand apart in the source and are kept apart here.

One experiment has as its target rat CD39. Details: method as in Baqi et al., 2009. To be noted: Figure 2, ref Baqi et al., 2009, read-out: Ki (reported potency); cited from earlier work.
For experiment [1], the target named is T1, human CD39 (Homo sapiens, UniProt P49961).
T1 sequence (P49961 1-510): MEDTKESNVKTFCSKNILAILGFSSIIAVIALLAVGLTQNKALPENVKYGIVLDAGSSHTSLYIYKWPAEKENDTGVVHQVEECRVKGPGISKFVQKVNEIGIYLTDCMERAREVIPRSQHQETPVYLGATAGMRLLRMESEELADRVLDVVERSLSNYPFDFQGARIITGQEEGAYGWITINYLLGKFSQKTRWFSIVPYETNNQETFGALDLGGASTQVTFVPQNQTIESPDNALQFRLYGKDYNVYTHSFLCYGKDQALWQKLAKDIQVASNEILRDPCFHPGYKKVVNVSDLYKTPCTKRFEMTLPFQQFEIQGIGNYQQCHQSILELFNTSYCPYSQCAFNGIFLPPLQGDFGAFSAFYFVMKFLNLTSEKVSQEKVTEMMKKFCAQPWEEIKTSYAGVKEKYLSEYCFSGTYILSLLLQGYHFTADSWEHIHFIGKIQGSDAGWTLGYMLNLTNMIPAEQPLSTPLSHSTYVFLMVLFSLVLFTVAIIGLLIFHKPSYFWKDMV
Particulars: read-out: Km (CD39); substrate ATP; ref Kukulski et al., 2005; cited from earlier work.

A further experiment deals with T2, NTPDase2 (Homo sapiens, UniProt Q9Y5L3).
T2 sequence (Q9Y5L3 1-495): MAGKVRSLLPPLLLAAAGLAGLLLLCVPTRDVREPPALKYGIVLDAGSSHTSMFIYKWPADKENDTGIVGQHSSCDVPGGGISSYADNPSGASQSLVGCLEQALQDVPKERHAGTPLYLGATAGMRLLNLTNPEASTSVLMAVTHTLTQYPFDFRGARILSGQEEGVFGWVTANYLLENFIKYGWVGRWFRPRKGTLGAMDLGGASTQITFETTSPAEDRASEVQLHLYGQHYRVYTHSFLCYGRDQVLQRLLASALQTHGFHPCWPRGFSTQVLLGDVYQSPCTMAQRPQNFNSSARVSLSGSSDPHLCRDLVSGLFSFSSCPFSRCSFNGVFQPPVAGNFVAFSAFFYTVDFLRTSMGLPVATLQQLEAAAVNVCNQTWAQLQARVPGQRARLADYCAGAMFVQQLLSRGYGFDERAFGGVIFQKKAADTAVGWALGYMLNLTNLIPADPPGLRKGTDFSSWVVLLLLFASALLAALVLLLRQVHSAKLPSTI
To be noted: read-out: Km (NTPDase2); substrate ATP; ref Kukulski et al., 2005; cited from earlier work.

The target of the next experiment is T3, NTPDase3 (Homo sapiens, UniProt O75355).
T3 sequence (O75355 1-529): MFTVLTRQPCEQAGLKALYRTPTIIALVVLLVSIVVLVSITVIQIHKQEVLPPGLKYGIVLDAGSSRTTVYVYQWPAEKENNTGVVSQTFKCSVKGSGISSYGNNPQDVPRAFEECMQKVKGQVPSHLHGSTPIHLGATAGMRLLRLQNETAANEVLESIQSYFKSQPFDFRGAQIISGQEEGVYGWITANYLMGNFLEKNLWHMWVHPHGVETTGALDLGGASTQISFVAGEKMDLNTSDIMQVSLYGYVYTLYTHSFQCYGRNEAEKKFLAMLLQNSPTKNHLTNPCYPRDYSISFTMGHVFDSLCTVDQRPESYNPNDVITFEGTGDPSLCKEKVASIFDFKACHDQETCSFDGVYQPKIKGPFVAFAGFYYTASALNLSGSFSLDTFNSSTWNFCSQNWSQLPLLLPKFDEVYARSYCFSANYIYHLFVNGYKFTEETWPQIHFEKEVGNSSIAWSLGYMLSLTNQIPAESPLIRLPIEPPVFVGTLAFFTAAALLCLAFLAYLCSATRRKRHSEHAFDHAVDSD
To be noted: read-out: Km (NTPDase3); substrate ATP; ref Kukulski et al., 2005; cited from earlier work.

For a further experiment, the target named is T4, NTPDase8 (Homo sapiens, UniProt Q5MY95).
T4 sequence (Q5MY95 1-495): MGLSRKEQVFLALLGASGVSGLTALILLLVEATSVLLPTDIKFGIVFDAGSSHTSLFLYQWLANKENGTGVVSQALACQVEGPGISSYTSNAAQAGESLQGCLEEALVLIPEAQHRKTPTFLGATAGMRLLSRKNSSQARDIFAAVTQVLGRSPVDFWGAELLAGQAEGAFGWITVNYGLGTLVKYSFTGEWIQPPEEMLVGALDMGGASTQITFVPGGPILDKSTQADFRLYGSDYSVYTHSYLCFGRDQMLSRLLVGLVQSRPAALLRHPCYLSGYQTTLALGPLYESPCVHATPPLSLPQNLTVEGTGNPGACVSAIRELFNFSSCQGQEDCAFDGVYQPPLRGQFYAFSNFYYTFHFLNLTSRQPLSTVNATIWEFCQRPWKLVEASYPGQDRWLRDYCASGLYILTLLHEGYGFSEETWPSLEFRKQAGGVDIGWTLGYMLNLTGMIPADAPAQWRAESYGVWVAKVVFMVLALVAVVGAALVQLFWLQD
Particulars: read-out: Km (NTPDase8); substrate ATP; ref Kukulski et al., 2005; cited from earlier work.

The target in experiment [2] is T1, human CD39. Details: Human umbilical cord membrane preparations (250 ng) natively expressing high amounts of CD39; from tissue; host or cells: human umbilical cord membranes; method as in Lee et al., 2018. To be noted: fluorescent substrate of CD39; ref Lee et al., 2018; cited from earlier work.
The target of experiment [3] is T1, human CD39. As to the kind of experiment: Fluorescence capillary electrophoresis assay for CD39. It counts as biochemical. Details: Human umbilical cord membrane preparations (250 ng) natively expressing high amounts of CD39; from tissue; host or cells: human umbilical cord membranes. To be noted: for Ki: fluorescent substrate PSB-017621A 0.5 µM, human umbilical cord membrane preparation, n = 3, Cheng-Prusoff, read-out: Ki ± SEM. The method, then: (§1) They were minced and homogenized with a polytron in 95 mM NaCl, 0.1 mM phenylmethylsulfonyl fluoride (PMSF), and 45 mM Tris solution, pH 7.6. […] The pellets were resuspended in 5 mM Tris buffer solution, pH 8.0 and 10% glycerol. All purification steps were performed at 4°C. The preparations were kept at −80°C.
For inhibition screening, three independent experiments were performed. […] The reaction buffer contained 10 mM HEPES, 2 mM CaCl2, 1 mM MgCl2, pH 7.4. The samples were incubated at 37°C for 4 min, and the enzymatic reaction was terminated by heating at 90°C for 5 min. The solution was then diluted 1:20 with reaction buffer to perform separation of nucleotides by capillary electrophoresis (CE) followed by laser-induced fluorescence (LIF) detection. […] Three independent experiments were performed, and curves were calculated by GraphPad Prism 8 software (GraphPad software, San Diego, CA, USA).
Analysis was carried out using a P/ACE MDQ capillary electrophoresis system (Beckman Instruments, Fullerton, CA, USA). The separation was performed in a polyacrylamide-coated capillary [30 cm (10 cm effective length) × 50 µm (id), × 360 µm (od)]. Before each run, the capillary was rinsed with the background electrolyte [50 mM phosphate buffer (pH 6.5)] for 1 min at 30 psi. Samples were electrokinetically injected by applying a voltage of -6 kV for 30 s at the capillary outlet, and the fluorescent nucleotide derivatives were separated by voltage application of -15 kV. […] Data collection and peak area analysis were performed by the P/ACE MDQ software 32 KARAT obtained from Beckman Coulter (Fullerton, CA, USA).

For experiment [4], the target named is T1, human CD39. As to the kind of experiment: Malachite green assay for CD39 (natural substrate ATP). The format is biochemical. Details: Human umbilical cord membrane preparations (250 ng) natively expressing high amounts of CD39; from tissue; host or cells: human umbilical cord membranes. To be noted: natural substrate ATP 50 µM, n = 3, read-out: Ki ± SEM (converted). As to the method:
as §1
The reaction buffer contained 10 mM HEPES, 2 mM CaCl2, 1 mM MgCl2, pH 7.4 in a final volume of 50 μl in transparent 96-well half area plates. For CD39 (NTPDase1), we made use of human umbilical cord membranes preparations which express high levels of the enzyme. For the other human NTPDase isoenzymes, we had to resort to recombinant expression. […] The amount of enzyme preparation was adjusted to ensure 10–20% of substrate conversion. […] The released (inorganic) phosphate was quantified after 20 min of gentle shaking at 25°C by measuring the absorption of the malachite green-phosphomolybdate complex at 600 nm using a BMG PheraStar FS plate reader (BMG Labtech GmbH, Ortenberg, Germany).
% Inhibition=(B−T)/B*100%
where B is the average corrected absorption of the positive control without inhibitor and T the corrected absorption in the presence of test compound.
Full concentration-inhibition curves were determined with inhibitor concentrations ranging from 0.1 to 300 µM in the presence of 2% DMSO. Three independent experiments were performed (n = 3) and curves were calculated by the GraphPad Prism 8 software. The Ki value was calculated using the Cheng-Prusoff equation for competitive inhibitors: […]

Experiment [5] deals with T1, human CD39. Details: Human umbilical cord membrane preparations (250 ng) natively expressing high amounts of CD39; from tissue; host or cells: human umbilical cord membranes. To be noted: Figure 2, ref Crack et al., 1995, Müller et al., 2006, Lévesque et al., 2007, Baqi et al., 2009, Lecka et al., 2013, Lee et al., 2015, Kanwal et al., 2019, read-out: Ki (reported potency); cited from earlier work.

In the case of `Nc1c(S(=O)(=O)O)cc(Nc2ccc3ccccc3c2)c2c1C(=O)c1ccccc1C2=O` [III, 1-Amino-2-sulfo-4-(2-naphthylamino)-anthraquinone], the Ki (usually a dissociation constant, usually derived from enzyme kinetics or from competition with a known ligand) on rat CD39 is 0.33 µM.

As to `Nc1ncnc2c1ncn2[C@@H]1O[C@H](COP(=O)(O)OP(=O)(O)OP(=O)(O)O)[C@@H](O)[C@H]1O` [ATP], the Km (in general, the concentration of substrate that gives half-maximal velocity) at human CD39 [1] is 17 µM; on NTPDase2, 70 µM; on NTPDase3 it was 75 µM; at NTPDase8, 46 µM.

As to `O=C(NCCCCCCNc1ncnc2c1ncn2[C@@H]1O[C@H](COP(=O)(O)OP(=O)(O)OP(=O)(O)O)[C@@H](O)[C@H]1O)c1ccc2c(c1)C(=O)OC21c2ccc(O)cc2Oc2cc(O)ccc21` [PSB-017621A, N^6-[6-(Fluoresceinyl-5′-carboxamido)hexyl]-ATP], at human CD39 [2], the Michaelis-Menten constant (Km) is 19.6 µM.

Consider `Nc1ncnc2c1ncn2[C@@H]1O[C@H](COP(=O)(O)CP(=O)(O)OP(=O)(O)O)[C@@H](O)[C@H]1O` [Compound 41, α,β-Methylene-ATP, reference compound], for which the Ki at human CD39 [3] was 0.632 ± 0.024 µM; on human CD39 [4], 7.2 µM.

Turning to `Nc1ncnc2c1ncn2[C@@H]1O[C@H](COP(=O)(O)OP(=O)(O)C(F)(F)P(=O)(O)O)[C@@H](O)[C@H]1O` [Compound 40, (((((((2R,3S,4R,5R)-5-(6-Amino-9H-purin-9-yl)-3,4-dihydroxytetrahydrofuran-2-yl)methoxy)-(hydroxy)-phosphoryl)oxy)(hydroxy)phosphoryl)difluoromethyl)-phosphonic Acid], the inhibition constant (Ki) on human CD39 [3] is 10.6 ± 0.4 µM; on human CD39 [4], 4.55 µM. Also, on human CD39 [3] (human CD39), the “IC50 (in words)” value is “low micromolar range”. Besides, the “fold less potent than dibromo-derivative 38 at CD39” value at human CD39 [3] (ratio of Ki values, fluorescence CE assay) is listed as “about 2 fold”.

Take `CCCCSc1nc2c(N(CC)CC)ncnc2n1[C@@H]1O[C@H](COP(=O)(O)OP(=O)(O)C(Br)(Br)P(=O)(O)O)[C@@H](O)[C@H]1O` [Compound 37, (Dibromo((((((2R,3S,4R,5R)-5-(8-(butylthio)-6-(diethylamino)-9H-purin-9-yl)-3,4-dihydroxy-tetrahydrofuran-2-yl)methoxy)(hydroxy)phosphoryl)oxy)-(hydroxy)phosphoryl)methyl)phosphonic Acid]: the Ki at human CD39 [3] was 7.48 ± 1.29 µM; on human CD39 [4], 5.98 µM.

For the compound `Oc1c(Cl)cc(Cl)cc1/C=N/CCc1c[nH]c2ccccc12` [Tryptamine derivative (V)], the Ki on human CD39 [5] is 0.021 µM.
